Test results as given in patent US20110059124A1, “THE QUALITY CONTROL METHOD AND APPLICATION OF A KIND OF GANODERMA LUCIDUM SPORE OIL FAT EMULSION” (Guangzhou Hanfang Natural Medicine Research & Development …, priority 2008, published 2011).
Marks after values point to notes of the source that are not given here. Ends that are not written are not given here.

Key:
Format in all cases: in vivo, ICR mice
[1] = tested on: H22 tumor bearing mice; assay: Phagocytic activity of reticuloendothelial system (RES) in H22 tumor bearing mice; conditions: 0.42 mg/kg Sc once every other day
Protocol: Experiment Treatment Effect of Ganoderma lucidium Spore Oil Fat Emulsion i.v. Dosage Influencing the Phagocytic Activity of Reticuloendothelial System (RES) in H22 Tumor Bearing Mice.
Experiment Method: Take 50 ICR mice, inoculate with H22 solid tumor, randomize into 5 groups pursuant to body weight, with 10 animals in each group, half of which are females and half of which are males. […] Apart from that Thymosin a1 is administered once every other day, other groups are administered once daily, with a total dosage of 11 times. […] All the data obtained are statistically treated (t Test).

[2] = tested on: normal mice; assay: Toxicity reduction for chemotherapy (Cy) in normal mice; conditions: 0.42 mg/kg Sc once every other day + Cy 100 mg/kg ip
Protocol: Toxicity reducing Effect of Ganoderma lucidium Spore Oil Fat Emulsion i.v. Dosage for Chemotherapy (Cy) in Normal Mice
Experiment Method: Take 60 ICR mice, and randomize into 6 groups pursuant to body weight, with 10 animals in each group, half of which are females and half of which are males. […] Apart from that Thymosin a1 is administered once every other day, other groups are administered once daily, with a total dosage of 7 times. On day 4 and day 5 of the administration, apart from blank control, the other groups begin to be treated with ip.Cy (100 mg/kg), for two successive days, and the mice are sacrificed 24 hours after termination of dosage, weigh and collect blood from the orbit veins before sacrificing, microscopically examine the total number of peripheral blood leukocytes, at the same time dissect one complete femur, then determine the number of nucleated cells in the bone marrow, and remove the thymus gland and spleen for weighing, and calculate the coefficients of thymus glands and spleen organs, and carry out statistical treatment (t Test).

[3] = tested on: H22 tumor bearing mice; assay: Toxicity reduction for chemotherapy with cyclophosphamide (Cy) in H22 tumor bearing mice; conditions: 0.42 mg/kg Sc once every other day + Cy 100 mg/kg ip
Protocol: Toxicity Reduction Effect of Ganoderma lucidium Spore Oil Fat Emulsion i.v. Dosage for Chemotherapy with Cyclophosphamide (Cy) in H22 Tumor Bearing Mice
Experiment Method: Take 60 ICR mice, inoculate with H22 solid tumor, weigh 24 hours after inoculation, then randomize into 6 groups, with 10 animals in each group, half of which are females and half of which are males. […] Apart from that Thymosin a1 are dosed once every other day, the other groups are administered once daily, with a total dose of 7 times, on day 4 and day 5 of administration, apart from blank control, the other groups begin to be treated with ip.Cy (100 mg/kg), for two successive day, and the mice are sacrificed 24 hours after termination of dosage, weigh and collect blood from the orbit veins before sacrificing, microscopic examine the total number of peripheral blood leukocytes, at the same time dissect one complete femur, then determine the number of nucleated cells in the bone marrow, and remove the thymus gland and spleen for weighing, and calculate the coefficients of thymus glands and spleen organs, and carry out statistical treatment (t Test).

[4] = tested on: normal mice; assay: Toxicity reduction for ^60Co radiation in normal mice; conditions: ^60Co 500 rad, 0.42 mg/kg Sc once every other day
Protocol: Toxicity Reducing Effect of Ganoderma lucidium Spore Oil Fat Emulsion i.v . Dosage for Chemotherapy ^60Co in Normal Mice
(§1) Experiment Method: Take 60 ICR mice, apart from the 10 animals in blank control, the other 50 mice are radiated with ^60Co, with a dosage of 500 rad; after radiation with ^60Co, randomize the animals into 5 groups pursuant to body weight, with 10 animals in each group, half of which are females and half of which are males. […] All groups of animals are dosed 24 hours after innoculation, apart from that Thymosin a1 are dosed once every other day, the other groups are administered once daily, with a total dose of 7 times, and the mice are sacrificed 24 hours after termination of dosage, weigh and collect blood from the orbit veins before sacrificing, microscopically examine the total number of peripheral blood leukocytes; at the same time remove spleen, thymus gland and one complete femur, then determine the number of nucleated cells in bone marrow, and weigh the thymus gland and spleen, and calculate the coefficients of thymus glands and spleen organs, and carry out statistical treatment (t Test).

[5] = tested on: H22 tumor bearing mice; assay: Delayed hypersensitivity (DNFB) in H22 tumor bearing mice; conditions: 0.42 mg/kg Sc once every other day
Text: Experiment Treatment Effect of Ganoderma lucidium Spore Oil Fat Emulsion i.v. Dosage Influencing the Immunity Function of Specific Cells in H22 Tumor Bearing Mice
Take 50 ICR mice, inoculate with H22 solid tumor pursuant to the research method of transplantable tumor (take the tumor mass under sterile operation, then weigh, grinding with Glass tissue homogenizer, after homogeneity, put into sterile containers, then dilute with normal saline into cell suspension of 1:3, for each mouse, inoculate intracutaneously under the right armpit for 0.2 ml). On the second day, they are randomized into 5 groups, with 10 mice in each group, with half being males and half females, which are divided into: Intravenous Control Group ([…], Blank Group), High, Medium, Low Doasge Groups injected with Ganoderma lucidium spore oil fat emulsion (1, 0.5, 0.25 g/kg) iv administered, Thymosin a1 injection group (0.42 mg/kg) Sc administered; apart from that Thymosin a1 is administered once every other day, other groups are administered once daily, with 7 administration. On day 1 after dosage, hair is removed from the abdomen of each mouse, with an area of 3×3 cm^2. On day 2 after dosage, smear 1% of DNFB evenly on the abdomen of mice (DNFB is a kind of haptene, which after combination with cutaneous proteins could form holoantigen, that stimulate the T Lymphocytes to multiply into sensitized lymphocytes).

[6] = tested on: H22 tumor bearing mice; assay: Toxicity reduction for ^60Co radiation in H22 tumor bearing mice; conditions: ^60Co 500 rad, 0.42 mg/kg Sc once every other day
Protocol: Toxicity Reducing Effect of Ganoderma lucidium Spore Oil Fat Emulsion i.v. Dosage for Chemotherapy with ^60Co in H22 Tumor Bearing Mice
as §1, with “mice, innoculate with H22 solid tumor pursuant to the research method for transplantable tumors, 24 hours after innoculation,” for “mice,”, “receive ^60Co radiation,” for “are radiated with ^60Co,”, “Apart” for “All groups of animals are dosed 24 hours after innoculation, apart”, “leukocytes,” for “leukocytes;”

**Q.** Which “Clearance Index K” value [1] does the source give for “Thymosin a1: Positive control drug Thymosin a1 injection, 0.42 mg/kg Sc (SDAAVDTSSEITTKDLKEKKEVVEEAEN; ends and bridges not checked; UniProt P06454 2-29, looked up)” here?
**A.** The value was 0.09 ± 0.02.

**Q.** And the “Liver Coefficient” value [1]?
**A.** Its value is 6.91 ± 1.08 g/100 g.

**Q.** What about the “Phagocytic Coefficient α” value [1] of the same substance?
**A.** The value was 5.71 ± 0.76.

**Q.** And the “Spleen Coefficient” value [1]?
**A.** Its value is 1.16 ± 0.44 g/100 g.

**Q.** What about the “Thymus Gland Coefficient” value [1] of the same substance?
**A.** Its value is 0.33 ± 0.11 g/100 g.

**Q.** And the “Body Weight After Dosage” value [2]?
**A.** Its value is 22.90 ± 2.18 g.

**Q.** And the “Body Weight Before Dosage” value [2]?
**A.** The value was 19.60 ± 1.26 g.

**Q.** What about the “Spleen Coefficient” value [2] of the same substance?
**A.** Its value is 0.36 ± 0.10 g/100 g.

**Q.** What about the “The number of nucleated cells in bone marrow” value (“The number of nucleated cells” for short) [2] of the same substance?
**A.** Its value is 75.43 ± 13.32* 10^5/piece.

**Q.** What about the “Thymus Gland Coefficient” value [2] of the same substance?
**A.** Its value is 0.18 ± 0.03 g/100 g.

**Q.** And the WBC [2]?
**A.** Its WBC is 2.04 ± 0.41* 10^9/L.

**Q.** And the “Body Weight After Dosage” value [3]?
**A.** Its value is 23.60 ± 2.27 g.

**Q.** And the “Body Weight Before Dosage” value [3]?
**A.** The value was 19.70 ± 1.57 g.

**Q.** What about the “Spleen Coefficient” value [3] of the same substance?
**A.** The value was 0.64 ± 0.21 g/100 g.

**Q.** And the “The number of nucleated cells” value [3]?
**A.** Its value is 73.31 ± 15.99* 10^5/piece.

**Q.** What about the “Thymus Gland Coefficient” value [3] of the same substance?
**A.** The value was 0.12 ± 0.04 g/100 g.

**Q.** And the WBC [3]?
**A.** The WBC was 2.03 ± 0.44* 10^9/L.

**Q.** What about the “Body Weight After Dosage” value [4] of the same substance?
**A.** Its value is 23.30 ± 2.11 g.

**Q.** And the “Body Weight Before Dosage” value [4]?
**A.** Its value is 19.90 ± 1.66 g.

**Q.** What about the “Spleen Coefficient” value [4] of the same substance?
**A.** Its value is 0.31 ± 0.14 g/100 g.

**Q.** And the “The number of nucleated cells” value [4]?
**A.** Its value is 67.83 ± 13.09* 10^5/piece.

**Q.** What about the “Thymus Gland Coefficient” value [4] of the same substance?
**A.** The value was 0.14 ± 0.05 g/100 g.

**Q.** And the WBC [4]?
**A.** The WBC was 1.21 ± 0.38* 10^9/L.

**Q.** What about the “Swelling Degree” value ([5]; 24 hours after DNFB attack) of the same substance?
**A.** The value was 13.50 ± 3.44 mg.

**Q.** What about the “Swelling Rate” value ([5]; 24 hours after DNFB attack) of the same substance?
**A.** The value was 89.12 ± 19.76 %.

**Q.** And the “Body Weight After Dosage” value ([5]; in g)?
**A.** Its value is 25.10 ± 2.18.

**Q.** What about the “Body Weight Before Dosage” value ([5]; in g) of the same substance?
**A.** The value was 19.30 ± 1.34.

**Q.** What about the “Body Weight After Dosage” value [6] of the same substance?
**A.** Its value is 24.20 ± 2.25 g.

**Q.** What about the “Body Weight Before Dosage” value [6] of the same substance?
**A.** The value was 19.60 ± 1.51 g.

**Q.** What about the “Spleen Coefficient” value [6] of the same substance?
**A.** Its value is 0.33 ± 0.04 g/100 g.

**Q.** And the “The number of nucleated cells” value [6]?
**A.** The value was 82.71 ± 13.58* 10^5/piece.

**Q.** What about the “Thymus Gland Coefficient” value [6] of the same substance?
**A.** Its value is 0.17 ± 0.07 g/100 g.

**Q.** What about the WBC [6] of the same substance?
**A.** Its WBC is 1.98 ± 0.31* 10^9/L.
